Consider 15 compounds from US20230365526A1, “PYRIDAZINE DERIVATIVES FOR MODULATING NUCLEIC ACID SPLICING” (REMIX THERAPEUTICS INC., priority 2020, published 2023).

Structures can show the parent of a compound that is named as a salt. Where two headings read alike, the source gives them in different places.

What all share (format): cell-based
For one assay, the system named is Target C. The experiment in a line: Gene panel canonical junction RT-qPCR assay: Target C. The following applies: read-out: Target C (IC50, decrease in CJ mRNA levels). On the procedure:
(§1) Compounds described herein were used to modulate RNA transcript abundance in cells. The expression of a target mRNA was measured by detecting the formation of an exon-exon junction in the canonical transcript (CJ). A compound mediated exon-inclusion event was detected by observing an increase in formation of a new junction with an alternative exon (AJ). Real-time qPCR assays were used to detect these splicing switches and interrogate the potency of various compounds towards different target genes. A high-throughput real time quantitative PCR (RT-qPCR) assay was developed to measure these two isoforms of the mRNA (CJ and AJ) for an exemplary gene, HTT, together with a control housekeeping gene, GAPDH or GUSB or PPIA, used for normalization. Briefly, the A673 or K562 cell line was treated with various compounds described herein (e.g., compounds of Formula (I)). After treatment, the levels of the HTT mRNA targets were determined from each sample of cell lysate by cDNA synthesis followed by qPCR.
(§2) The A673 cell line was cultured in DMEM with 10% FBS. Cells were diluted with full growth media and plated in a 96-well plate (15,000 cells in 100 ul media per well). The plate was incubated at 37° C. with 5% CO2 for 24 hours to allow cells to adhere. An 11-point 3-fold serial dilution of the compounds was made in DMSO then diluted in media in an intermediate plate. Compounds were transferred from the intermediate plate to the cell plate with the top dose at a final concentration of 10 uM in the well. Final DMSO concentration was kept at or below 0.25%. The cell plate was returned to the incubator at 37° C. with 5% CO2 for an additional 24 hours.
(§3) The K562 cell line was cultured in IMDM with 10% FBS. For K562, cells were diluted with full growth media and plated in either a 96-well plate (50,000 cells in 50 uL media per well) or a 384-well plate (8,000-40,000 cells in 45 uL media per well). An 11-point 3-fold serial dilution of the compounds were made in DMSO then diluted in media in an intermediate plate. Compound was transferred from the intermediate plate to the cell plate with the top dose at a final concentration of 10 uM in the well. Final DMSO concentration was kept at or below 0.25%. Final volume was 100 uL for 96-well plate and 50 uL for 384-well plate. The cell plate was then placed in an incubator at 37° C. with 5% CO2 for 24 hours.
(§4) The cells were then gently washed with 50 uL-100 uL cold PBS before proceeding to addition of lysis buffer. 30 uL-50 uL of room temperature lysis buffer with DNAse I (and optionally RNAsin) was added to each well. Cells were shaken/mixed thoroughly at room temperature for 5-10 minutes for lysis to take place and then 3 uL-5 uL of room temperature stop solution was added and wells were shaken/mixed again. After 2-5 minutes, the cell lysate plate was transferred to ice for RT-qPCR reaction setup. The lysates could also be frozen at −80° C. for later use.
(§5) In some cases, a direct lysis buffer was used. An appropriate volume of 3×lysis buffer (10 mM Tris, 150 mM NaCl, 1.5%-2.5% Igepal and 0.1-1 U/uL RNAsin, pH 7.4) was directly added to either K562 or A673 cells in media and mixed by pipetting 3 times. The plates were then incubated at room temperature with shaking/rocking for 20-50 minutes to allow for lysis to take place. After this time, the cell lysate plate was transferred to ice to set up for the RT-qPCR reactions. The lysates could also be frozen at −80° C. for later use.
(§6) To set up 10 uL RT-qPCR reactions, cell lysates were transferred to 384-well qPCR plates containing the master mix according to the table below. The plates were sealed, gently vortexed, and spun down before the run. The volumes were adjusted accordingly in some instances where the reaction was carried in 20 uL. The table below summarizes the components of the RT-qPCR reactions:
(§7) The RT-qPCR reaction was performed using a QuantStudio (ThermoFisher) under the following fast cycling conditions. […]

The test system of another assay is SMN2. Description: Gene panel canonical junction RT-qPCR assay: SMN2. The note with it: read-out: SMN2 (IC50, decrease in CJ mRNA levels). On the procedure: as §1, §2, §3, §4, §5, §6, §7
A general note: Real-time PCR tracks product formation cycle by cycle.

A further assay deals with HTT. The experiment in a line: Gene panel canonical junction RT-qPCR assay: HTT. The following applies: read-out: HTT (IC50, decrease in CJ mRNA levels). On the procedure: as §1, §2, §3, §4, §5, §6, §7
A further assay relates to HTT mRNA. The experiment in a line: RT-qPCR splicing assay monitoring HTT canonical (CJ) and alternative (AJ) junction mRNA in A673 or K562 cells. The following applies: 24 hours compound treatment, top dose 10 uM. On the procedure: as §1
• Cells-to-CT 1-step kit: ThermoFisher A25602, Cells-to-CT lysis reagent: ThermoFisher 4391851C, TaqMan™ Fast Virus 1-Step Master Mix: ThermoFisher 4444436 • GAPDH: VIC-PL, ThermoFisher 4326317E (Assay: Hs99999905_m1)—used for K562/suspension cell lines • GUSB: VIC-PL, ThermoFisher 4326320E (Assay: Hs99999908_m1)—used for K562/suspension cell lines • PPIA: VIC-PL, ThermoFisher 4326316E (Assay: Hs99999904_m1)—used for A673/adherent cell lines
as §2, §3, §4
In some cases, a direct lysis buffer was used. An appropriate volume of 3×lysis buffer (10 mM Tris, 150 mM NaCl, 1.5%-2.5% Igepal and 0.1-1 U/uL RNAsin, pH 7.4) was directly added to either K562 or A673 cells in media and mixed by pipetting 3 times. The plates were then incubated at room temperature with shaking/rocking for 20-50 minutes to allow for lysis to take place. After this time, the cell lysate plate was transferred to ice to set up for the RT-qPCR reactions. The lysates could also be frozen at −80° C. for later use. […]

Setting [1] is: decrease in CJ mRNA, read-out: HTT CJ AC50.
Where [2] appears, read: increase in AJ mRNA, read-out: HTT AJ AC50.

The IC50 is the concentration that inhibits the measured activity by half. By AC50 is commonly meant the concentration at which the activity in the assay is half-maximal. As to `COc1cc(-c2ccc(N(C)[C@@H]3C[C@H]4CC[C@@H](C3)N4)nn2)ccc1-c1cn[nH]c1` [Compound 208], the half-inhibitory concentration (IC50) is 0.1 to 1 µM in the assay with Target C, < 0.1 µM with SMN2 and 0.1 to 1 µM in the assay on HTT. Further, the half-maximal activity concentration (AC50) in the assay on HTT mRNA (setting [1]) and with HTT mRNA (setting [2]) was 0.1 to 1 µM in each case.
On to `COc1nc(-c2ccc(N(C)[C@@H]3CCN[C@H](C)C3)nn2)ccc1-c1cn[nH]c1` [Compound 136, 6-[6-methoxy-5-(1H-pyrazol-4-yl)pyridin-2-yl]-N-methyl-N-[(2R,4R)-2-methylpiperidin-4-yl]pyridazin-3-amine], for which the IC50 in the assay with SMN2 fell in the range of 0.1 to 1 µM; in the assay with HTT, 1 to 10 µM. Besides, the concentration at half-maximal activity (AC50) in the assay on HTT mRNA (setting [1]) and in the assay with HTT mRNA (setting [2]) was 1 to 10 µM in each case.
As for `CC(C)Oc1nc(-c2ccc(N(C)[C@@H]3C[C@H]4CC[C@@H](C3)N4)nn2)ccc1-c1cn[nH]c1` [Compound 284, (1R,3R,5S)—N-{6-[6-isopropoxy-5-(1H-pyrazol-4-yl)pyridin-2-yl]pyridazin-3-yl}-N-methyl-8-azabicyclo[3.2.1]octan-3-amine], the figures for the 50% inhibitory concentration (IC50) with Target C and in the assay on HTT were 0.1 to 1 µM and < 0.1 µM, respectively. Further, the half-maximal activity concentration (AC50) in the assay on HTT mRNA (setting [1]) was < 0.1 µM; in the assay on HTT mRNA (setting [2]), 1 to 10 µM.
For `COc1nc(-c2ccc(OC3CC(C)(C)NC(C)(C)C3)nn2)ccc1-c1cnn(C)n1` [Compound 258, 3-[6-methoxy-5-(2-methyl-1,2,3-triazol-4-yl)pyridin-2-yl]-6-[(2,2,6,6-tetramethylpiperidin-4-yl)oxy]pyridazine], the IC50 is 1 to 10 µM in the assay on Target C and 0.1 to 1 µM with HTT. In addition, the AC50 in the assay on HTT mRNA (setting [1]) was 0.1 to 1 µM; in the assay on HTT mRNA (setting [2]), 1 to 10 µM.
In the case of `COc1nc(-c2ccc(N(C)[C@@H]3C[C@H]4CC[C@@H](C3)N4)nn2)ncc1-c1cn[nH]c1` [Compound 207], the IC50 with Target C, with SMN2 and with HTT was 1 to 10 µM throughout. Besides, the AC50 in the assay on HTT mRNA (setting [1]) and in the assay with HTT mRNA (setting [2]) was 1 to 10 µM throughout.
Take `Cc1nc(-c2ccc(N(C)[C@@H]3C[C@H]4CC[C@@H](C3)N4)nn2)ccc1-c1cn[nH]c1` [Compound 171]: the IC50 in the assay with Target C lay in the range of 1 to 10 µM; in the assay with SMN2, 0.1 to 1 µM; in the assay on HTT, 1 to 10 µM. For the same compound, the concentration at half-maximal activity (AC50) with HTT mRNA (setting [1]) and with HTT mRNA (setting [2]) was 1 to 10 µM each time.
For the compound `CN(c1ccc(-c2ccc(-c3cn[nH]c3)c(OC3CC3)n2)nn1)[C@@H]1C[C@H]2CC[C@@H](C1)N2` [Compound 286, (1R,3R,5S)—N-{6-[6-cyclopropoxy-5-(1H-pyrazol-4-yl)pyridin-2-yl]pyridazin-3-yl}-N-methyl-8-azabicyclo[3.2.1]octan-3-amine], the half-inhibitory concentration (IC50) in the assay on Target C and in the assay with HTT was < 0.1 µM each time. Further, the half-maximal activity concentration (AC50) with HTT mRNA (setting [1]) and in the assay on HTT mRNA (setting [2]) was < 0.1 µM each time.
Turning to `CN(c1ccc(-c2ccc(-c3cn[nH]c3)c(F)n2)nn1)[C@@H]1C[C@H]2CC[C@@H](C1)N2` [Compound 249, (1R,3R,5S)—N-{6-[6-fluoro-5-(1H-pyrazol-4-yl)pyridin-2-yl]pyridazin-3-yl}-N-methyl-8-azabicyclo[3.2.1]octan-3-amine hydrochloride], the IC50 in the assay with Target C and in the assay with HTT was < 0.1 µM in each case. Also, the AC50 in the assay on HTT mRNA (setting [1]) and in the assay on HTT mRNA (setting [2]) was < 0.1 µM throughout.
Regarding `COc1nc(-c2ccc(NC3CCNCC3)nn2)ccc1-c1cnn(C)c1` [Compound 257, 6-[6-methoxy-5-(1-methylpyrazol-4-yl)pyridin-2-yl]-N-(piperidin-4-yl)pyridazin-3-amine], the 50% inhibitory concentration (IC50) in the assay with Target C and in the assay with HTT was 1 to 10 µM in each case. In addition, the AC50 in the assay with HTT mRNA (setting [1]) and in the assay with HTT mRNA (setting [2]) was 1 to 10 µM throughout.
For the compound `COc1nc(-c2ccc(O[C@@H]3C[C@H]4CC[C@@H](C3)N4)nn2)ccc1-c1cn(C)nn1` [Compound 290, 3-({6-[6-methoxy-5-(1-methyl-1,2,3-triazol-4-yl)pyridin-2-yl]pyridazin-3-yl}oxy)-8-azabicyclo[3.2.1]octane], the half-inhibitory concentration (IC50) in the assay with Target C is 1 to 10 µM; in the assay on HTT it was 0.1 to 1 µM. Moreover, the half-maximal activity concentration (AC50) in the assay on HTT mRNA (setting [1]) is 0.1 to 1 µM; in the assay on HTT mRNA (setting [2]), > 10 µM.
Turning to `COc1nc(-c2ccc(OC3CC(C)(C)NC(C)(C)C3)nn2)ccc1-c1cnn(C)c1` [Compound 245, 3-[6-methoxy-5-(1-methylpyrazol-4-yl)pyridin-2-yl]-6-[(2,2,6,6-tetramethylpiperidin-4-yl)oxy]pyridazine], the concentration for half-maximal inhibition (IC50) with Target C is 0.1 to 1 µM; in the assay on HTT it was < 0.1 µM. Besides, the AC50 with HTT mRNA (setting [1]) and with HTT mRNA (setting [2]) was 0.1 to 1 µM throughout.
Turning to `CN(c1ccc(-c2ccc(-c3cn[nH]c3)c(C(F)(F)F)n2)nn1)[C@@H]1C[C@H]2CC[C@@H](C1)N2` [Compound 236], the 50% inhibitory concentration (IC50) with Target C and with HTT was > 10 µM throughout. Besides, the AC50 in the assay with HTT mRNA (setting [1]) and in the assay with HTT mRNA (setting [2]) was > 10 µM throughout.
Take `COc1nc(-c2ccc(N(C)[C@@H]3C[C@H]4CC[C@@H](C3)N4)nn2)cc(F)c1-c1cn[nH]c1` [Compound 268, (exo)-N-{6-[4-fluoro-6-methoxy-5-(1H-pyrazol-4-yl)pyridin-2-yl]pyridazin-3-yl}-N-methyl-8-azabicyclo[3.2.1]octan-3-amine]: the concentration for half-maximal inhibition (IC50) with Target C and with HTT was < 0.1 µM each time. Further, the AC50 in the assay on HTT mRNA (setting [1]) and in the assay on HTT mRNA (setting [2]) was < 0.1 µM throughout.
As for `COc1nc(-c2ccc(N(C)C3CC(C)(C)NC(C)(C)C3)nn2)ccc1-c1cnn(C)c1` [Compound 247, 6-[6-methoxy-5-(1-methylpyrazol-4-yl)pyridin-2-yl]-N-methyl-N-(2,2,6,6-tetramethylpiperidin-4-yl)pyridazin-3-amine], the IC50 is 0.1 to 1 µM with Target C and < 0.1 µM in the assay on HTT. Also, the AC50 in the assay on HTT mRNA (setting [1]) and in the assay on HTT mRNA (setting [2]) was 0.1 to 1 µM throughout.
`CN(c1ccc(-c2ccc(-c3cn[nH]c3)c(Cl)n2)nn1)[C@@H]1C[C@H]2CC[C@@H](C1)N2` [Compound 250, (exo)-N-{6-[6-chloro-5-(1H-pyrazol-4-yl)pyridin-2-yl]pyridazin-3-yl}-N-methyl-8-azabicyclo[3.2.1]octan-3-amine]: the half-inhibitory concentration (IC50) was 0.1 to 1 µM in the assay with Target C and < 0.1 µM in the assay on HTT. The AC50 with HTT mRNA (setting [1]) and in the assay with HTT mRNA (setting [2]) was < 0.1 µM each time.
